Columns and labels:
surinam grass = experiment: Test B pre/postemergence surinam grass; assay type: in vivo, Brachiaria decumbens
How it was run: (§1)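 Test chemicals in a non-phytotoxic solvent mixture with surfactant were sprayed preemergence onto planted seeds and postemergence onto plants 2 to 18 cm tall (1- to 4-leaf stage). After twelve to sixteen days in a greenhouse, injury was visually rated against untreated controls from 0 (no effect) to 10 (complete control).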

giant foxtail = experiment: Test B pre/postemergence giant foxtail; assay type: in vivo, Setaria faberii
How it was run: as §1

bedstraw = experiment: Test B pre/postemergence bedstraw; assay type: in vivo, Galium aparine
How it was run: as §1

sugar beet = experiment: Test B pre/postemergence sugar beet; assay type: in vivo, Beta vulgaris
How it was run: as §1

velvetleaf = experiment: Test B pre/postemergence velvetleaf; assay type: in vivo, Abutilon theophrasti
How it was run: as §1

crabgrass = experiment: Test B pre/postemergence crabgrass; assay type: in vivo, Digitaria sanguinalis
How it was run: as §1

wild oat = experiment: Test B pre/postemergence wild oat; assay type: in vivo, Avena fatua
How it was run: as §1

wheat = experiment: Test B pre/postemergence wheat; assay type: in vivo, Triticum aestivum
How it was run: as §1

cocklebur = experiment: Test B pre/postemergence cocklebur; assay type: in vivo, Xanthium strumarium
How it was run: as §1

morningglory = experiment: Test B pre/postemergence morningglory; assay type: in vivo, Ipomoea hederacea
How it was run: as §1

pigweed = experiment: Test B pre/postemergence pigweed; assay type: in vivo, Amaranthus retroflexus
How it was run: as §1

duck salad = experiment: Test B flood test duck salad; assay type: in vivo, Heteranthera limosa
How it was run: (§2)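 Flood test on plants grown to the 2-leaf stage; treated plants kept in greenhouse twelve to sixteen days, then visually rated against controls on a 0 (no effect) to 10 (complete control) scale.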

bamyardgrass = experiment: Test B flood test barnyardgrass; assay type: in vivo, Echinochloa crus-galli
How it was run: as §2

rice = experiment: Test B flood test rice; assay type: in vivo, Oryza sativa
How it was run: as §2

purple nutsedge = experiment: Test B pre/postemergence purple nutsedge; assay type: in vivo, Cyperus rotundus
How it was run: as §1

blackgrass = experiment: Test B pre/postemergence blackgrass; assay type: in vivo, Alopecurus myosuroides
How it was run: as §1

[1] = Postemergence, Rate 62 g/ha, scale 0 to 10, 0 is no effect, 10 is complete control
[2] = Postemergence, Rate 250 g/ha, scale 0 to 10, 0 no effect, 10 complete control
[3] = Preemergence, Rate 31 g/ha, visual rating, scale 0 to 10 (0 no effect, 10 complete control)
[4] = Preemergence, Rate 62 g/ha, scale 0 to 10, 0 is no effect, 10 is complete control
[5] = Preemergence, Rate 125 g/ha, scale 0 to 10 (0 no effect, 10 complete control)
[6] = Preemergence, Rate 250 g/ha, scale of 0 to 10 where 0 is no effect and 10 is complete control
[7] = Rate 31 g/ha, Postemergence, scale 0 to 10
[8] = Rate 125 g/ha, Postemergence, scale 0 to 10, 0 no effect, 10 complete control
[9] = Rate 31 g/ha, Postemergence section (flood test species), scale 0 to 10
[10] = Rate 125 g/ha, Postemergence section (flood test species), scale 0 to 10, 0 no effect, 10 complete control
[11] = flood test, listed under Postemergence, Rate 250 g/ha, scale 0 to 10, 0 no effect, 10 complete control

SMILES: CC(C)N(C(=O)n1oc(=O)n(-c2ccc(F)cc2F)c1=O)c1ccc(F)cc1F [Compound 22]
- B. signalgrass plant response rating (surinam grass; [1]): 0
- B. signalgrass plant response rating (surinam grass; [2]): 2
- B. signalgrass plant response rating (surinam grass; [3]): 0
- Plant response rating, B. signalgrass (surinam grass; [4]): 0
- Plant response rating, B. signalgrass (surinam grass; [5]): 2
- Plant response rating, B. signalgrass (surinam grass; [6]): 4
- B. signalgrass plant response rating (surinam grass; [7]): 0
- B. signalgrass plant response rating (surinam grass; [8]): 0
- Giant foxtail plant response rating (giant foxtail; [1]): 0
- Giant foxtail plant response rating (giant foxtail; [2]): 4
- Giant foxtail plant response rating (giant foxtail; [3]): 3
- Plant response rating, Giant foxtail (giant foxtail; [4]): 3
- Plant response rating, Giant foxtail (giant foxtail; [5]): 4
- Plant response rating, Giant foxtail (giant foxtail; [6]): 7
- Giant foxtail plant response rating (giant foxtail; [7]): 0
- Giant foxtail plant response rating (giant foxtail; [8]): 2
- Bedstraw plant response rating (bedstraw; [1]): 1
- Bedstraw plant response rating (bedstraw; [2]): 4
- Bedstraw plant response rating (bedstraw; [3]): 0
- Plant response rating, Bedstraw (bedstraw; [4]): 0
- Plant response rating, Bedstraw (bedstraw; [5]): 0
- Plant response rating, Bedstraw (bedstraw; [6]): 4
- Bedstraw plant response rating (bedstraw; [7]): 0
- Bedstraw plant response rating (bedstraw; [8]): 2
- Sugarbeets plant response rating (sugar beet; [1]): 0
- Sugarbeets plant response rating (sugar beet; [2]): 0
- Sugarbeets plant response rating (sugar beet; [3]): 0
- Plant response rating, Sugarbeets (sugar beet; [4]): 0
- Plant response rating, Sugarbeets (sugar beet; [5]): 4
- Plant response rating, Sugarbeets (sugar beet; [6]): 7
- Sugarbeets plant response rating (sugar beet; [8]): 0
- Velvetleaf plant response rating (velvetleaf; [1]): 0
- Velvetleaf plant response rating (velvetleaf; [2]): 0
- Velvetleaf plant response rating (velvetleaf; [3]): 0
- Plant response rating, Velvetleaf (velvetleaf; [4]): 0
- Plant response rating, Velvetleaf (velvetleaf; [5]): 0
- Plant response rating, Velvetleaf (velvetleaf; [6]): 1
- Velvetleaf plant response rating (velvetleaf; [8]): 0
- Crabgrass plant response rating (crabgrass; [1]): 0
- Crabgrass plant response rating (crabgrass; [2]): 9
- Crabgrass plant response rating (crabgrass; [3]): 3
- Plant response rating, Crabgrass (crabgrass; [4]): 3
- Plant response rating, Crabgrass (crabgrass; [5]): 4
- Plant response rating, Crabgrass (crabgrass; [6]): 8
- Crabgrass plant response rating (crabgrass; [7]): 0
- Crabgrass plant response rating (crabgrass; [8]): 4
- Wild oats plant response rating (wild oat; [1]): 0
- Wild oats plant response rating (wild oat; [2]): 1
- Wild oats plant response rating (wild oat; [3]): 0
- Plant response rating, Wild oats (wild oat; [5]): 0
- Plant response rating, Wild oats (wild oat; [6]): 0
- Wild oats plant response rating (wild oat; [8]): 0
- Wheat plant response rating (wheat; [1]): 0
- Wheat plant response rating (wheat; [2]): 0
- Wheat plant response rating (wheat; [3]): 0
- Plant response rating, Wheat (wheat; [4]): 0
- Plant response rating, Wheat (wheat; [5]): 0
- Plant response rating, Wheat (wheat; [6]): 0
- Wheat plant response rating (wheat; [8]): 0
- Cocklebur plant response rating (cocklebur; [1]): 0
- Cocklebur plant response rating (cocklebur; [2]): 0
- Cocklebur plant response rating (cocklebur; [3]): 0
- Plant response rating, Cocklebur (cocklebur; [4]): 0
- Plant response rating, Cocklebur (cocklebur; [5]): 0
- Plant response rating, Cocklebur (cocklebur; [6]): 0
- Cocklebur plant response rating (cocklebur; [7]): 0
- Cocklebur plant response rating (cocklebur; [8]): 0
- Morningglory plant response rating (morningglory; [1]): 0
- Morningglory plant response rating (morningglory; [2]): 2
- Morningglory plant response rating (morningglory; [3]): 0
- Plant response rating, Morningglory (morningglory; [4]): 0
- Plant response rating, Morningglory (morningglory; [5]): 0
- Plant response rating, Morningglory (morningglory; [6]): 0
- Morningglory plant response rating (morningglory; [7]): 0
- Morningglory plant response rating (morningglory; [8]): 2
- Redroot pigweed plant response rating (pigweed; [1]): 0
- Redroot pigweed plant response rating (pigweed; [2]): 2
- Redroot pigweed plant response rating (pigweed; [3]): 0
- Plant response rating, Redroot pigweed (pigweed; [4]): 0
- Plant response rating, Redroot pigweed (pigweed; [5]): 2
- Plant response rating, Redroot pigweed (pigweed; [6]): 5
- Redroot pigweed plant response rating (pigweed; [7]): 0
- Redroot pigweed plant response rating (pigweed; [8]): 1
- Ducksalad plant response rating (duck salad; [1]): 0
- Ducksalad plant response rating (duck salad; [9]): 0
- Ducksalad plant response rating (duck salad; [10]): 0
- Ducksalad plant response rating (duck salad; [11]): 0
- Barnyardgrass plant response rating (bamyardgrass; [1]): 0
- Barnyardgrass plant response rating (bamyardgrass; [9]): 0
- Barnyardgrass plant response rating (bamyardgrass; [10]): 0
- Barnyardgrass plant response rating (bamyardgrass; [11]): 0
- Rice plant response rating (rice; [1]): 0
- Rice plant response rating (rice; [9]): 0
- Rice plant response rating (rice; [10]): 0
- Rice plant response rating (rice; [11]): 0
- Nutsedge plant response rating (purple nutsedge; [1]): 0
- Nutsedge plant response rating (purple nutsedge; [2]): 0
- Nutsedge plant response rating (purple nutsedge; [3]): 0
- Plant response rating, Nutsedge (purple nutsedge; [4]): 0
- Plant response rating, Nutsedge (purple nutsedge; [5]): 0
- Plant response rating, Nutsedge (purple nutsedge; [6]): 0
- Nutsedge plant response rating (purple nutsedge; [7]): 0
- Nutsedge plant response rating (purple nutsedge; [8]): 0
- Blackgrass plant response rating (blackgrass; [1]): 1
- Blackgrass plant response rating (blackgrass; [2]): 3
- Blackgrass plant response rating (blackgrass; [3]): 0
- Plant response rating, Blackgrass (blackgrass; [4]): 0
- Plant response rating, Blackgrass (blackgrass; [5]): 4
- Plant response rating, Blackgrass (blackgrass; [6]): 6
- Blackgrass plant response rating (blackgrass; [7]): 0
- Blackgrass plant response rating (blackgrass; [8]): 1
